Assay results taken from US20150289513A1, “USE OF A COMPOUND COMPRISING A POLYFLUOROBENZYL MOIETY AGAINST INSECTICIDE-RESISTANT PESTS” (priority 2012, published 2015).

Columns and labels:
Test in all cases: Glazed tile contact test, knock-down
Type in all cases: in vivo
[1] = system: Aedes aegypti (target-site-resistant strain: Grand Cayman)
Method: To produce a suitable preparation Transfluthrin was dissolved in acetone. The active compound solution was pipetted onto a glazed tile and, after drying, adult mosquitoes of the species Aedes aegypti (target-site-resistant strain: Grand Cayman) were placed onto the treated tile. The exposition time was 30 minutes.
(§1) 0.25 hours, 0.5 hours, 1 hour, 2 hour, 3 hour, 4 hour and 24 hours after contact to the treated surface, the knock-down proportion of the test animals in % was determined. Here, 100% (effect) means that all mosquitoes have been killed; 0% (effect) means that none of the mosquitoes have been killed.

[2] = system: Anopheles gambiae (target-site-resistant strain: VK7)
Method: (§2) To produce a suitable preparation Transfluthrin was dissolved in acetone. The active compound solution was pipetted onto a glazed tile and, after drying, adult mosquitoes of the species: • Anopheles gambiae (target-site-resistant and metabolic-resistant strain: RSPH), • Anopheles gambiae (target-site-resitant and metabolic-resistant strain: Tiassalé), • Anopheles gambiae (tar et-site-resitant and metabolic-resistant strain: Akron), • Anopheles gambiae (target-site-resistant strain: VK7), and • Anopheles funestus (metabolic-resistant strain FUMOZ-R) were placed onto the treated tile (each strain was tested on separate tiles). The exposition time was 30 minutes.
as §1

[3] = system: Anopheles gambiae (strain: Tiassalé)
Method: as §2, §1

[4] = 0.064 g/ha, 0.25 h after contact
[5] = 0.064 g/ha, 0.5 h after contact
[6] = 0.32 g/ha, 0.25 h after contact

CC1(C)[C@H](C=C(Cl)Cl)[C@H]1C(=O)OCc1c(F)c(F)cc(F)c1F [Transfluthrin, (1R,3S)-3-(2,2-Dichlorovinyl)-2,2-dimethyl-1-cyclopropanecarboxylic acid (2,3,5,6-tetrafluorophenyl)methyl ester]
Effect % [1, 4]: 5% | Effect % [1, 5]: 0% | Effect % ([1]; 0.064 g/ha, 1 h after contact): 0% | Effect % ([1]; 0.064 g/ha, 2 h after contact): 0% | Effect % ([1]; 0.064 g/ha, 3 h after contact): 0% | Effect % ([1]; 0.064 g/ha, 4 h after contact): 0% | Effect % ([1]; 0.064 g/ha, 24 h after contact): 10% | Effect % [1, 6]: 20% | Effect % ([1]; 0.32 g/ha, 0.5 h after contact): 25% | Effect % ([1]; 0.32 g/ha, 1 h after contact): 30% | Effect % ([1]; 0.32 g/ha, 2 h after contact): 20% | Effect % ([1]; 0.32 g/ha, 3 h after contact): 20% | Effect % ([1]; 0.32 g/ha, 4 h after contact): 25% | Effect % ([1]; 0.32 g/ha, 24 h after contact): 20% | Effect % ([1]; 1.6 g/ha, 0.25 h after contact): 70% | Effect % ([1]; 1.6 g/ha, 0.5 h after contact): 60% | Effect % ([1]; 1.6 g/ha, 1 h after contact): 70% | Effect % ([1]; 1.6 g/ha, 2 h after contact): 70% | Effect % ([1]; 1.6 g/ha, 3 h after contact): 65% | Effect % ([1]; 1.6 g/ha, 4 h after contact): 60% | Effect % ([1]; 1.6 g/ha, 24 h after contact): 70% | Effect % ([1]; 8 g/ha, 0.25 h after contact): 90% | Effect % ([1]; 8 g/ha, 0.5 h after contact): 100% | Effect % ([1]; 8 g/ha, 1 h after contact): 100% | Effect % ([1]; 8 g/ha, 2 h after contact): 90% | Effect % ([1]; 8 g/ha, 3 h after contact): 100% | Effect % ([1]; 8 g/ha, 4 h after contact): 90% | Effect % ([1]; 8 g/ha, 24 h after contact): 90% | Effect % ([1]; 40 g/ha, 0.25 h after contact): 100% | Effect % ([1]; 40 g/ha, 0.5 h after contact): 100% | Effect % ([1]; 40 g/ha, 1 h after contact): 100% | Effect % ([1]; 40 g/ha, 2 h after contact): 100% | Effect % ([1]; 40 g/ha, 3 h after contact): 100% | Effect % ([1]; 40 g/ha, 4 h after contact): 100% | Effect % ([1]; 40 g/ha, 24 h after contact): 100% | Effect % ([1]; 200 g/ha, 0.25 h after contact): 100% | Effect % ([1]; 200 g/ha, 0.5 h after contact): 100% | Effect % ([1]; 200 g/ha, 1 h after contact): 100% | Effect % ([1]; 200 g/ha, 2 h after contact): 100% | Effect % ([1]; 200 g/ha, 3 h after contact): 100% | Effect % ([1]; 200 g/ha, 4 h after contact): 100% | Effect % ([1]; 200 g/ha, 24 h after contact): 100% | Effect % [2, 4]: 5% | Effect % [2, 5]: 5% | Effect % ([2]; 0.064 g/ha, 1 h after contact): 5% | Effect % ([2]; 0.064 g/ha, 2 h after contact): 15% | Effect % ([2]; 0.064 g/ha, 3 h after contact): 15% | Effect % ([2]; 0.064 g/ha, 4 h after contact): 15% | Effect % ([2]; 0.064 g/ha, 24 h after contact): 25% | Effect % [2, 6]: 25% | Effect % ([2]; 0.32 g/ha, 0.5 h after contact): 35% | Effect % ([2]; 0.32 g/ha, 1 h after contact): 20% | Effect % ([2]; 0.32 g/ha, 2 h after contact): 20% | Effect % ([2]; 0.32 g/ha, 3 h after contact): 20% | Effect % ([2]; 0.32 g/ha, 4 h after contact): 25% | Effect % ([2]; 0.32 g/ha, 24 h after contact): 30% | Effect % ([2]; 1.6 g/ha, 0.25 h after contact): 80% | Effect % ([2]; 1.6 g/ha, 0.5 h after contact): 90% | Effect % ([2]; 1.6 g/ha, 1 h after contact): 85% | Effect % ([2]; 1.6 g/ha, 2 h after contact): 80% | Effect % ([2]; 1.6 g/ha, 3 h after contact): 65% | Effect % ([2]; 1.6 g/ha, 4 h after contact): 85% | Effect % ([2]; 1.6 g/ha, 24 h after contact): 65% | Effect % ([2]; 8 g/ha, 0.25 h after contact): 100% | Effect % ([2]; 8 g/ha, 0.5 h after contact): 100% | Effect % ([2]; 8 g/ha, 1 h after contact): 100% | Effect % ([2]; 8 g/ha, 2 h after contact): 100% | Effect % ([2]; 8 g/ha, 3 h after contact): 100% | Effect % ([2]; 8 g/ha, 4 h after contact): 100% | Effect % ([2]; 8 g/ha, 24 h after contact): 100% | Effect % ([2]; 40 g/ha, 0.25 h after contact): 100% | Effect % ([2]; 40 g/ha, 0.5 h after contact): 100% | Effect % ([2]; 40 g/ha, 1 h after contact): 100% | Effect % ([2]; 40 g/ha, 2 h after contact): 100% | Effect % ([2]; 40 g/ha, 3 h after contact): 100% | Effect % ([2]; 40 g/ha, 4 h after contact): 100% | Effect % ([2]; 40 g/ha, 24 h after contact): 100% | Effect % ([2]; 200 g/ha, 0.25 h after contact): 100% | Effect % ([2]; 200 g/ha, 0.5 h after contact): 100% | Effect % ([2]; 200 g/ha, 1 h after contact): 100% | Effect % ([2]; 200 g/ha, 2 h after contact): 100% | Effect % ([2]; 200 g/ha, 3 h after contact): 100% | Effect % ([2]; 200 g/ha, 4 h after contact): 100% | Effect % ([2]; 200 g/ha, 24 h after contact): 100% | Effect % [3, 4]: 5% | Effect % [3, 5]: 10% | Effect % ([3]; 0.064 g/ha, 1 h after contact): 15% | Effect % ([3]; 0.064 g/ha, 2 h after contact): 15% | Effect % ([3]; 0.064 g/ha, 3 h after contact): 15% | Effect % ([3]; 0.064 g/ha, 4 h after contact): 10% | Effect % ([3]; 0.064 g/ha, 24 h after contact): 20% | Effect % [3, 6]: 5% | Effect % ([3]; 0.32 g/ha, 0.5 h after contact): 15% | Effect % ([3]; 0.32 g/ha, 1 h after contact): 5% | Effect % ([3]; 0.32 g/ha, 2 h after contact): 10% | Effect % ([3]; 0.32 g/ha, 3 h after contact): 10% | Effect % ([3]; 0.32 g/ha, 4 h after contact): 10% | Effect % ([3]; 0.32 g/ha, 24 h after contact): 15% | Effect % ([3]; 1.6 g/ha, 0.25 h after contact): 0% | Effect % ([3]; 1.6 g/ha, 0.5 h after contact): 15% | Effect % ([3]; 1.6 g/ha, 1 h after contact): 10% | Effect % ([3]; 1.6 g/ha, 2 h after contact): 5% | Effect % ([3]; 1.6 g/ha, 3 h after contact): 5% | Effect % ([3]; 1.6 g/ha, 4 h after contact): 0% | Effect % ([3]; 1.6 g/ha, 24 h after contact): 10% | Effect % ([3]; 8 g/ha, 0.25 h after contact): 90% | Effect % ([3]; 8 g/ha, 0.5 h after contact): 100% | Effect % ([3]; 8 g/ha, 1 h after contact): 100% | Effect % ([3]; 8 g/ha, 2 h after contact): 85% | Effect % ([3]; 8 g/ha, 3 h after contact): 80% | Effect % ([3]; 8 g/ha, 4 h after contact): 85% | Effect % ([3]; 8 g/ha, 24 h after contact): 60% | Effect % ([3]; 40 g/ha, 0.25 h after contact): 100% | Effect % ([3]; 40 g/ha, 0.5 h after contact): 100% | Effect % ([3]; 40 g/ha, 1 h after contact): 100% | Effect % ([3]; 40 g/ha, 2 h after contact): 95% | Effect % ([3]; 40 g/ha, 3 h after contact): 90% | Effect % ([3]; 40 g/ha, 4 h after contact): 85% | Effect % ([3]; 40 g/ha, 24 h after contact): 85% | Effect % ([3]; 200 g/ha, 0.25 h after contact): 100% | Effect % ([3]; 200 g/ha, 0.5 h after contact): 100% | Effect % ([3]; 200 g/ha, 1 h after contact): 100% | Effect % ([3]; 200 g/ha, 2 h after contact): 100% | Effect % ([3]; 200 g/ha, 3 h after contact): 100% | Effect % ([3]; 200 g/ha, 4 h after contact): 100% | Effect % ([3]; 200 g/ha, 24 h after contact): 85%
